This note sets out measurements from ChEMBL document CHEMBL4765410, “A cell-penetrant lactam-stapled peptide for targeting eIF4E protein-protein interactions” (Eur J Med Chem, 2020).

The target in data set [1] is T1, Eukaryotic translation initiation factor 4E (Homo sapiens, UniProt P06730). The data set is described as follows: Inhibition of recombinant human 10His-tagged eIF4E expressed in Escherichia coli BL21 (DE3) cells by catalytic enzyme-linked click chemistry assay.
Data set [2] addresses T1, Eukaryotic translation initiation factor 4E. The data set is described as follows: Binding affinity to recombinant human 10His-tagged eIF4E expressed in Escherichia coli BL21 (DE3) cells assessed as association constant by surface plasmon resonance analysis.
Data set [3] has the same target. The data set can be described thus: Binding affinity to recombinant human 10His-tagged eIF4E expressed in Escherichia coli BL21 (DE3) cells assessed as binding constant by surface plasmon resonance analysis.
The target is the same in data set [4]. The data set is described as follows: Binding affinity to eIF4E in HEK293 cell lysates assessed as thermal stabilization of protein at 1 to 15 uM incubated for 1 hrs followed by heating at 49 to 52.4 degC for 3 mins by CETSA-based Western blot analysis. In kind it is subcellular. The following applies: dose 1-15 µM.
The nature of data set [5]: Drug uptake in cytosol of human HeLa cells stably expressing Halo-tagged-GFP assessed as normalized fluorescence in cytosol incubated for 4 hrs by flow cytometry based CAPA. Format: ADME, subcellular.
A short description of data set [6]: Drug uptake in cytosol of human HeLa cells stably expressing Halo-tagged-GFP assessed as normalized fluorescence in cytosol at 0.74 uM incubated for 4 hrs by flow cytometry based CAPA relative to control. In kind it is ADME, subcellular.
In data set [7] the target is T2, EIF4E/EIF4G1 (Homo sapiens) (UniProt P06730+Q04637). The data set can be described thus: Inhibition of eIF4E/eIF4G interaction in human MDA-MB-231 cells incubated for 6 hr by m7GDP cap pull down assay. Format: cell-based.
In data set [8] the target is T2, EIF4E/EIF4G1 (Homo sapiens). The data set can be described thus: Inhibition of eIF4E/eIF4G interaction in human MCF7 cells incubated for 6 hr by m7GDP cap pull down assay. Format: cell-based.
The target is the same in data set [9]. The data set is described as follows: Inhibition of eIF4E/eIF4G interaction in human T47D cells incubated for 6 hr by m7GDP cap pull down assay. Format: cell-based.
The subject of the next data set is MDA-MB-231. The data set can be described thus: Anti-proliferative activity against human MDA-MB-231 cells after 6 days by CellTiter-Glo assay. In kind it is functional, cell-based. Conditions: time 6.0 day.
For another data set, the system named is MCF7. The data set can be described thus: Anti-proliferative activity against human MCF7 cells after 6 days by CellTiter-Glo assay. Format: functional, cell-based. The following applies: time 6.0 day.
The subject of a further data set is T47D. The data set is described as follows: Anti-proliferative activity against human T47D cells after 6 days by CellTiter-Glo assay. Conditions: time 6.0 day. In kind it is functional, cell-based.
Data set [10] concerns the target T1, Eukaryotic translation initiation factor 4E. The data set can be described thus: Inhibition of eIF4E in human MCF7 cells measured up to 42 hrs by m7GDP cap pull down assay. In kind it is cell-based. The following applies: time hrs <=42.

Each structure is given as a SMILES string. The source made the active and inactive calls. The rule behind the calls is not given here. Bridge positions count the residues as written; N and C are the ends. Peptide text beside a SMILES is read from it.

T1 sequence (P06730 whole entry): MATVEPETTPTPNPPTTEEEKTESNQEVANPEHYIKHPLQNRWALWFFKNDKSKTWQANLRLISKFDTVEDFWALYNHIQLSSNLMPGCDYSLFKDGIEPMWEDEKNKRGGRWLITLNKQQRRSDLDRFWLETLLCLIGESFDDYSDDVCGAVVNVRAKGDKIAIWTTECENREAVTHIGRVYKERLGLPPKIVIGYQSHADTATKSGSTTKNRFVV

As to `CC[C@H](C)[C@H](NC(=O)[C@H](CCCNC(=N)N)NC(C)=O)C(=O)N[C@H](C(=O)N[C@@H](Cc1ccc(O)cc1)C(=O)N[C@@H](CC(=O)O)C(=O)N[C@@H](CCCNC(=N)N)C(=O)N[C@H]1CCC(=O)NCCCC[C@@H](C(=O)N[C@@H](CS)C(=O)N[C@@H](CCCNC(=N)N)C(N)=O)NC(=O)[C@H](CCSC)NC(=O)[C@H](CC(C)C)NC(=O)[C@H](Cc2ccccc2)NC1=O)[C@@H](C)CC` (Ac-RIIYDREFLMKCR-NH2; lactam 7-11), the IC50 in data set [1] amounted to 6.5 nM. In addition, the Ka in [2] came out at 3.1e+06 M⁻¹ s⁻¹. The Kd in [3] amounted to 2.2 nM. The outcome in data set [4] and in data set [10] was Active. For the same molecule, the Q50 in data set [5] came to 1.5 µM. Also, in [6], the Drug uptake came out at 20%. Further, the inhibition entry in data set [7], in data set [8] and in data set [9] was “Dose-dependent effect” throughout. Moreover, the result with MDA-MB-231, with MCF7 and in the data set on T47D was inactive.

Regarding `CC[C@H](C)[C@H](NC(=O)[C@H](CCCNC(=N)N)NC(=O)[C@@H](NC(=O)CNC(C)=O)[C@@H](C)O)C(=O)N[C@H](C(=O)N[C@@H](Cc1ccc(O)cc1)C(=O)N[C@@H](CC(=O)O)C(=O)N[C@@H](CCCNC(=N)N)C(=O)N[C@@H](CCCCN)C(=O)N[C@@H](Cc1ccccc1)C(=O)N[C@@H](CC(C)C)C(=O)N[C@@H](CCSC)C(=O)N[C@@H](CCC(=O)O)C(=O)N[C@@H](CS)C(=O)N[C@@H](CCCNC(=N)N)C(=O)N[C@@H](CC(N)=O)C(N)=O)[C@@H](C)CC`, the Ka in data set [2] is 630000 M⁻¹ s⁻¹.

As for `CC[C@H](C)[C@H](NC(=O)[C@H](CCCNC(=N)N)NC(C)=O)C(=O)N[C@H](C(=O)N[C@@H](Cc1ccc(O)cc1)C(=O)N[C@@H](CC(=O)O)C(=O)N[C@@H](CCCNC(=N)N)C(=O)N[C@H]1CCCCNC(=O)CC[C@@H](C(=O)N[C@@H](CS)C(=O)N[C@@H](CCCNC(=N)N)C(N)=O)NC(=O)[C@H](CCSC)NC(=O)[C@H](CC(C)C)NC(=O)[C@H](Cc2ccccc2)NC1=O)[C@@H](C)CC` (Ac-RIIYDRKFLMECR-NH2; lactam 7-11), the IC50 in data set [1] was determined as 22 nM. In addition, the Ka in data set [2] is 580000 M⁻¹ s⁻¹. For the same molecule, the Kd in data set [3] was found to be 7.2 nM. Moreover, in data set [4], the result was inactive. The Q50 in data set [5] came to 0.25 µM. Moreover, the Drug uptake in [6] is 84%.
